Experimental data reported in patent publication US5238938A, “Indole derivatives” (Otsuka Pharmaceutical Co., Ltd., priority 1989, dated 1993).
≈ marks a conversion by molar mass, not a printed value.

The compounds below were run on superoxide radicals (O2^-) released from the peritoneal macrophage cells of guinea pig (assay: Inhibitory effect against superoxide radicals (O2^-) released from the peritoneal macrophage cells of guinea pig by stimulation). Conditions: Cavia porcellus, Peritoneal macrophage cell; guinea pig peritoneal macrophages 2×10^6 cells/ml; FMLP 10^-7 M; cytochrome C reduction, OD550; 37° C.; read-out: 50% inhibitory concentration (IC50), superoxide radical release.
Assay type: cell-based
Method: Inhibitory effect against superoxide radicals (O2^-) released from the peritoneal macrophage cells of guinea pig by stimulation
Mineral oil (15 ml) was intraperitoneally administered to a guinea pig, then 96 hours after the administration, the peritoneal macrophage cells were samples.
Superoxide redicals (O2^-) were determined by means of reduction of cytochrome C method according to the procedure described in an article by T. Matsumoto, K. Takeshige and S. Minakami: Biochemical and Biophysical Research Communications, Vol. 88, No. 3, pp. 974-979, (1979).
The peritoneal macrophage cells were added to make the final concentration of 2×10^6 cells/ml into 1 ml of 80 μM-cytochome C solution, and the test compound of indole derivative of the present invention was added thereto to make the test group sample. On the other hand, water was added in place of the indole derivative of the present invention to make the control group sample. Each of the test group sample and the control group sample was subjected to pure incubaiton at 37° C. for 1 minute.
As to the stimulating agent for releasing superoxide radicals (O2^-), FMLP (formylmethionyl leucyl phenylalanine) was added to make the final concentration thereof to 10^-7 M, to each of the test group sample and the control group sample. Then both samples were subjected to additional reaction by incubation for 1 minute.
Difference of the optical absorbances measured at 550 nm (OD550) of both test group and control group samples were determined, and the 50% inhibitory concentration (IC50) was obtained by calculating as the ratio of OD550 of the test group sample to that of the control group sample.

| SMILES | IC50 |
| --- | --- |
| CC(C)Cc1c(=O)[nH]c(Cc2c[nH]c3ccccc23)c(Cl)[n+]1[O-] [Compound E-57a, 5-Chloro-6-(indol-3-yl)methyl-3-isobutyl-1,2-dihydropyrazin-2-one 4-oxide] | 10 µg/mL (≈ 30.1 µM) |
| COc1c(Cc2c[nH]c3ccccc23)[nH]c(=O)c(Cc2ccccc2)[n+]1[O-] [Compound E-6d, 3-Benzyl-6-(indol-3-yl)methyl-5-methoxy-1,2-dihydropyrazin-2-one 4-oxide] | 5 µg/mL (≈ 13.8 µM) |
| CCOc1c(Cc2c[nH]c3ccccc23)[nH]c(=O)c(CC(C)C)[n+]1[O-] [Compound E-12, 5-Ethoxy-6-(indol-3-yl)methyl-3-isobutyl-1,2-dihydropyrazin-2-one 4-oxide] | 8 µg/mL (≈ 23.4 µM) |
| CC(C)C[C@@H]1C(=O)N[C@@H](Cc2c[nH]c3ccccc23)C(=O)N1O [Compound A-30a, (3S,6R)-1-Hydroxy-3-(indol-3-yl)methyl-6-isobutylpiperazine-2,5-dione] | 10 µg/mL (≈ 31.7 µM) |
| COc1c(Cc2c[nH]c3ccc(F)cc23)[nH]c(=O)c(CC(C)C)[n+]1[O-] [Compound E-34a, 6-[(5-Fluoro)indol-3-yl]methyl-3-isobutyl-5-methoxy-1,2-dihydropyrazin-2-one 4-oxide] | 10 µg/mL (≈ 29 µM) |
| CC(C)Cc1c(=O)[nH]c(Cc2c[nH]c3ccccc23)c(N)[n+]1[O-] [Compound A-62, 5-amino-6-(indol-3-yl)methyl-3-isobutyl-1,2-dihydropyrazin-2-one 4-oxide] | 12 µg/mL (≈ 38.4 µM) |
| COc1c(Cc2cn(C)c3ccccc23)nc(OCc2ccccc2)c(CC(C)C)[n+]1[O-] [Compound E-67a, 3-Benzyloxy-2-isobutyl-5-[(1-methyl)indol-3-yl]methyl-6-methoxypyrazine 1-oxide] | 10 µg/mL (≈ 23.2 µM) |
| CC(C)C[C@H]1C(=O)N[C@@H](Cc2c[nH]c3ccccc23)C(=O)N1O [Compound A-29a, (3S,6S)-1-Hydroxy-3-(indol-3-yl)methyl-6-isobutylpiperazine-2,5-dione] | 50 µg/mL (≈ 159 µM) |
| COc1c(Cc2c[nH]c3ccc(O)cc23)[nH]c(=O)c(CC(C)C)[n+]1[O-] [Compound E-34j, 6-[(5-Hydroxy)indol-3-yl]methyl-3-isobutyl-5-methoxy-1,2-dihydropyrazin-2-one 4-oxide] | 10 µg/mL (≈ 29.1 µM) |
| CSc1c(Cc2c[nH]c3ccccc23)[nH]c(=O)c(CC(C)C)[n+]1[O-] [Compound E-57c, 6-(Indol-3-yl)methyl-3-isobutyl-5-methylthio-1,2-dihydropyrazin-2-one 4-oxide] | 10 µg/mL (≈ 29.1 µM) |
| COc1c(Cn2ccc3ccccc32)[nH]c(=O)c(CC(C)C)[n+]1[O-] [Compound E-36p, 6-(Indol-1-yl)methyl-3-isobutyl-5-methoxy-1,2-dihydropyrazin-2-one 4-oxide] | 8 µg/mL (≈ 24.4 µM) |
| CC(=O)Nc1c(Cc2c[nH]c3ccccc23)[nH]c(=O)c(CC(C)C)[n+]1[O-] [Compound A-63, 5-acetamino-6-(indol-3-yl)methyl-3-isobutyl1,2-dihydropyrazin-2-one 4-oxide] | 30 µg/mL (≈ 84.6 µM) |
| COc1nc(CC(C)C)c(=O)[nH]c1Cc1c[nH]c2ccccc12 [Compound A-16] | 50 µg/mL (≈ 161 µM) |
| COc1c(Cc2c[nH]c3ccccc23)nc(Cl)c(CC(C)C)[n+]1[O-] [Compound A-46, 3-chloro-5-(indol-3-yl)methyl-2-isobutyl-6-methoxypyrazine-1-oxide] | 30 µg/mL (≈ 86.7 µM) |

Each compound was assayed on releasing of lysosome from the neutrocytes of rat (assay: Inhibitory effect against the releasing of lysosome from the neutrocytes of rat). Conditions: 0.25 h; rat neutrocytes 5×10^5 cells/ml; FMLP 10^-6 M + cytochalasin B 5 μg/ml; 15 minutes; OD550; read-out: 50% inhibitory concentration (IC50), releasing of lysosome.
Assay type: cell-based
Method: Inhibitory effect against the releasing of lysosome from the neutrocytes of rat
The neutrocytes of rat were samples from the abdominal cavity of the reat 16 hours after the administration of 10 ml of 1%-casein solution (physiological saline solution).
Reaction of the releasing of lysosome from the neutrocytes of rat was determined by means of the method described in an article by T. Matsumoto, K. Takeshige and S. Minakami: Biochemical and Biophysical Research Communications, Vol. 88, No. 3, pp. 974-979, (1979).
The neutrocytes being sampled were added to Hank's soluiton so as to make the concentraiton thereof as 5×10^5 cells/ml, and the test compound of indole derivative of the present invention was added thereto to make the test group sample. On the other hand, water was added in place of the indole derivative of the present invention to make the control group sample. Each of the test group sample and the control group sample was subjected to pre-incubation at 37° C. for 1 minute.
As to the stimulating agents, 10^-6 M of FMLP (formylmethionyl leucyl phenylalanine) and 5 μg/ml of cytochalasin B were added to the solution. Thus, obtained mixture of the solution was reacted by incubating for 15 minutes. After the incubation, the mixture of the solution was subjected to centrifugation at 2,000 rpm for 10 minutes. The supernatant (0.2 ml) was admixed with 0.5 ml of 0.1M-acetic acid buffer solution (pH 4.5) in which 0.2 mM of phenolphthalein glucuronic acid was dissolved. Then the resulting mixture of the solutions was reacted at 37° C. for 5 hours by incubation. After the reaction, 1N-NaOH solution was added to the reaction mixture so as to make the pH thereof to pH 8-9, and the optical absorbance of both test group samples and control group samples were determined at 550 nm (OD550).
The 50% inhibitory concentration (IC50) values were obtained by calculating as the ratio of OD550 of the test group samples to that of the control group samples.

| SMILES | IC50 |
| --- | --- |
| CC(C)C[C@@H]1NC(=O)/C(=C/c2c[nH]c3ccccc23)N(C)C1=O [Compound A-4b, (3S,Z)-6-(Indol-3-yl)methylidene-3-isobutyl-1-methylpiperazine-2,5-dione] | 30 µg/mL |
| COc1c(Cc2c[nH]c3ccccc23)nc(OC(C)=O)c(CC(C)C)[n+]1[O-] [Compound E-65, 3-Acetoxy-5-(indol-3-yl)methyl-2-isobutyl-6-methoxypyrazine 1-oxide] | 9 µg/mL |
| COC(=O)n1cc(Cc2nc(Cl)c(CC(C)C)[n+]([O-])c2OC)c2ccccc21 [Compound A-48, 3-Chloro-2-isobutyl-5-[(1-methoxycarbonyl)indol-3-yl]methyl-6-methoxypyrazineyl-oxide] | 50 µg/mL |
| CC(C)/C=c1\[nH]c(=O)/c(=C/c2c[nH]c3ccccc23)[nH]c1=O [Compound A-34, (Z,Z)-3-(indol-3-yl)methylidene-6-isobutylidenepiperazine-2,5-dione] | 50 µg/mL |
| COn1c(C)c(C)nc(Cc2c[nH]c3ccccc23)c1=O [Compound A-53, 3-(Indol-3-yl)methyl-1-methoxy-5,6-dimethyl-1,2-dihydropyrazin-2-one] | 43 µg/mL |
| COc1nc(CC(C)C)c(OC)nc1Cc1c[nH]c2ccccc12 [Compound A-19, 3-(Indol-3-yl)methyl-6-isobutyl-2,5-dimethoxypyrazine] | 25 µg/mL |
| COc1c(Cn2ccc3cc(C#N)ccc32)[nH]c(=O)c(CC(C)C)[n+]1[O-] [Compound E-36o, 6-[(5-cyano)indol-1-yl]methyl-3-isobutyl-5-methoxy-1,2-dihydropyrazin-2-one4-oxide] | 12 µg/mL |
| CC(C)Cc1c(=O)[nH]c(Cc2c[nH]c3ccccc23)c[n+]1[O-] [Compound A-84, 6-(indol-3-yl)methyl-3-isobutyl-1,2-dihydropyrazin-2-one 4-oxide] | 50 µg/mL |
| CC(C)Cc1nc(Cl)c(Cc2c[nH]c3ccccc23)nc1Cl [Compound A-26, 3-(Indol-3-yl)methyl-2,5-dichloro-6-isobutylpyrazine] | 10 µg/mL |
| O=C1CN(O)C(=O)[C@H](Cc2c[nH]c3ccccc23)N1 [Compound A-29c, (3S)-1-Hydroxy-3-(indol-3-yl)methylpiperazine-2,5-dione] | 50 µg/mL |
| COc1nc(-c2ccccc2)c(=O)n(C)c1Cc1c[nH]c2ccccc12 [Compound A-6a, 6-(indol-3-yl)methyl-5-methoxy-1-methyl-3-phenyl-1,2-dihydropyrazin-2-one] | 30 µg/mL |
| COc1nc(Cc2c[nH]c3ccccc23)c(OC)[n+]([O-])c1CC(C)C [Compound A-60, 3-(indol-3-yl)methyl-6-isobutyl-2,5-dimethoxypyrazine 1-oxide] | 20 µg/mL |
| CC(C)C[C@H]1C(=O)N[C@@H](Cc2c[nH]c3ccccc23)C(=O)N1OCc1ccccc1 [Compound A-35d, (3S,6S)-1-Benzyloxy-3-(indol-3-yl)methyl-6-isobutyl-piperazine-2,5-dione] | 50 µg/mL |
| COc1nc(CC(C)C)c(=O)n(C)c1Cc1c[nH]c2ccccc12 [Compound A-6b, 6-(Indol-3-yl)methyl-3-isobutyl-5-methoxy-1-methyl-1,2-dihydropyrazin-2-one] | 30 µg/mL |
| CN1C(=O)C(c2ccccc2)NC(=O)/C1=C/c1c[nH]c2ccccc12 (stereo not drawn) [Compound A-4a, (Z)-6-(indol-3-yl)methylidene-1-methyl-3-phenylpiperazine-2,5-dione] | 35 µg/mL |
| COc1c(Cc2c[nH]c3ccccc23)n(C)c(=O)c(CC(C)C)[n+]1[O-] [Compound A-59, 6-(indol-3-yl)methyl-3-isobutyl-5-methoxy-1-methyl-1,2-dihydropyrazin-2-one 4-oxide] | 20 µg/mL |
| COc1c(CC2C(=O)Nc3ccccc32)[nH]c(=O)c(CC(C)C)[n+]1[O-] (stereo not drawn) [Compound E-39, 2-Isobutyl-5-methxoy-6-(oxindol-3-yl)methyl-1,2-dihydropyrazin-2-one 4-oxide] | 50 µg/mL |
| COc1c(Cc2c(-c3ccccc3)[nH]c3ccccc23)[nH]c(=O)c(CC(C)C)[n+]1[O-] [Compound E-34g, 3-Isobutyl-5-methoxy-6-[(2-phenyl)indol-3-yl]methyl-1,2-dihydropyrazin-2-one 4-oxide] | 8 µg/mL |
| COC1=N[C@@H](CC(C)C)C(=O)N(C)/C1=C\c1c[nH]c2ccccc12 [Compound A-5b, (3S,Z)-6-(Indol-3-yl)methylidene-3-isobutyl-5-methoxy-1-methyl-1,2,3,6-tetrahydropyrazin-2-one] | 25 µg/mL |
